Reference: patent US10160747B2, “Compounds and methods for kinase modulation, and indications therefor” (Plexxikon Inc., priority 2016, dated 2018)
pIC50: −log10 of the molar value.

Each molecule was assayed against CSF1R (Homo sapiens, UniProt P07333) (assay: CSF1R 100 ATP 8 pt kinase assay (Table 6)).
Type: biochemical
From the text: The following Table 6 provides data indicating FLT3 ITD, D835Y and F691L; c-KIT and CSF1R biochemical and/or cell inhibitory activity for exemplary compounds as described herein.

CSF1R, sequence (P07333 20-972, species assumed): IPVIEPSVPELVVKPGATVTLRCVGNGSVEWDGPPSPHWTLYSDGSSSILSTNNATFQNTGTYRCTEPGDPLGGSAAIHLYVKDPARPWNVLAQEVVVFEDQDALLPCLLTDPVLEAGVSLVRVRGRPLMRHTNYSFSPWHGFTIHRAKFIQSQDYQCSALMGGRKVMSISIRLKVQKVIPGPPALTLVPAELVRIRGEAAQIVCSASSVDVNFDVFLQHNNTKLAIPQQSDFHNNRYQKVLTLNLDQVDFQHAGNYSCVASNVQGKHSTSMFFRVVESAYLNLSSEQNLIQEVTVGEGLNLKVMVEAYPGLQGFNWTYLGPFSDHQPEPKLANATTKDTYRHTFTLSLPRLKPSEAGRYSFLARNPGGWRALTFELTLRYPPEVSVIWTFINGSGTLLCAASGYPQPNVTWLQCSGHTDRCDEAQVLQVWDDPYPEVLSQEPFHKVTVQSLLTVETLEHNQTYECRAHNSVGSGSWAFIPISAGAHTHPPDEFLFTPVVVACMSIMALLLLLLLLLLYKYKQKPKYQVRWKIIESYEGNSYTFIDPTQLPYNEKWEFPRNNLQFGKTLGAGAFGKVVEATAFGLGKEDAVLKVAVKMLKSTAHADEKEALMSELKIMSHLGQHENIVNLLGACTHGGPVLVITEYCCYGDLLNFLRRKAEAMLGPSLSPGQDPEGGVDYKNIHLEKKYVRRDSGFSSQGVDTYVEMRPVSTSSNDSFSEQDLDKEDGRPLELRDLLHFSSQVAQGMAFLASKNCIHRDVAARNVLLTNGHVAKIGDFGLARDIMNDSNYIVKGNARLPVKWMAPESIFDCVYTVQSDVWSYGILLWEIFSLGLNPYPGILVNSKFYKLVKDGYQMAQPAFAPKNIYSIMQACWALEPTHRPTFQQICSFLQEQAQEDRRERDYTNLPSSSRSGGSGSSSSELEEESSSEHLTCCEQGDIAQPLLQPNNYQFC

Row | Structure (SMILES) | pIC50
1 | O=C(Cc1ccc(-c2cnc3[nH]nc(C4CC4)c3c2)cc1F)Nc1cncc(C(F)(F)F)c1 [Compound P-0072, 2-[4-(3-cyclopropyl-1H-pyrazolo[3,4-b]pyridin-5-yl)-2-fluoro-phenyl]-N-[5-(trifluoromethyl)-3-pyridyl]acetamide] | 5.00 to 10.00
2 | CCC(=O)c1c[nH]c2ncc(-c3ccc(CC(=O)Nc4cnc(C)c(C(F)(F)F)c4)c(F)c3)cc12 [Compound P-0070, 2-[2-fluoro-4-(3-propanoyl-1H-pyrrolo[2,3-b]pyridin-5-yl)phenyl]-N-[6-methyl-5-(trifluoromethyl)-3-pyridyl]acetamide] | 5.00 to 10.00
3 | O=C(Cc1ccc(-c2cnc3[nH]nc(C4CC4)c3c2)cc1)Nc1cncc(C(F)(F)F)c1 [Compound P-0073, 2-[4-(3-cyclopropyl-1H-pyrazolo[3,4-b]pyridin-5-yl)phenyl]-N-[5-(trifluoromethyl)-3-pyridyl]acetamide] | 5.00 to 10.00
